T1: RGS2-FBXO44 interaction (Homo sapiens, UniProt P41220)
T1 construct: expressed in transfected cells
T1 sequence (P41220 1-211): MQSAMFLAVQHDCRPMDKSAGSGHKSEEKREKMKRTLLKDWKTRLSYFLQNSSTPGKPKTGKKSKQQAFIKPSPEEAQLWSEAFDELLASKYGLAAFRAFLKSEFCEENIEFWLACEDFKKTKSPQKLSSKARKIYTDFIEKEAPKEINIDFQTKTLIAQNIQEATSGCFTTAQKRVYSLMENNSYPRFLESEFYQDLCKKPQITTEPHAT

T2: RGS2-SmBiT (UniProt P41220 1-211)
T2 construct: Regulator of G protein signaling 2 (RGS2); cloned in-house into pBiT2.3-C[CMV/SmBiT/Blast]; The linker between RGS2 and SmBiT is not described; In the BiBiT construct RGS2-SmBiT and LgBiT-FBXO44 are expressed from one plasmid with a bidirectional CMV promoter; also called C-terminally tagged RGS2; source: HEK-293T, transiently transfected, in live cells; not shown: SmBiT, C-terminal, kept
T2 sequence (looked up): T1 sequence (P41220 1-211)

B1: LgBiT-FBXO44 (natural protein, UniProt Q9H4M3 1-255, looked up)
chain: MAVGNINELPENILLELFTHVPARQLLLNCRLVCSLWRDLIDLVTLWKRKCLREGFITEDWDQPVADWKIFYFLRSLHRNLLHNPCAEEGFEFWSLDVNGGDEWKVEDLSRDQRKEFPNDQVKKYFVTSYYTCLKSQVVDLKAEGYWEELMDTTRPDIEVKDWFAARPDCGSKYQLCVQLLSSAHAPLGTFQPDPATIQQKSDAKWREVSHTFSNYPPGVRYIWFQHGGVDTHYWAGWYGPRVTNSSITIGPPLP
notes: F-box Only Protein 44 (FBXO44); cloned in-house into pBiT1.3-N[CMV/LgBiT/Hygro]; The linker between LgBiT and FBXO44 is not described; also called N-terminally tagged FBXO44; source: HEK-293T, transiently transfected, in live cells; not shown: LgBiT, N-terminal, kept

Experiments:
[1] = tested on: HEK-293T-RGS2-FBXO44 NanoBit cells; assay: Cell viability assay (GF-AFC fluorescence) multiplexed with NanoBit; format: cell-based, Human; conditions: for Viability (% of Control) / Cell toxicity (in words): 100 μM; for Viability (% of Control): 16–18 hours
Description: The cells were plated in DMEM without phenol red (Gibco, #21063), 0.1% BSA in a white, tissue culture-treated 384-well plate (Perkin Elmer) at 15,000 cells/well, unless indicated otherwise, and allowed to attach. The plate was centrifuged at 212 × g for 30 seconds to aid in even cell adherence. Compound treatments were initiated 4–5 hours after plating. Following indicated treatment times, media was removed from the plate using BioTek ELx405 plate washer. Additionally, 10 μL of Hank’s Balanced Salt solution (HBSS) with 0.1% BSA was added to each well, followed by 5 μL of glycyl-phenylalanyl-aminofluorocoumarin (GF-AFC; MP Biomedicals) diluted 1:1000 in 100 mM HEPES. Plates were then centrifuged at 212 × g for 30 seconds and then incubated at 37 °C for 30 minutes. Fluorescence was detected on a Synergy Neo2 multimode plate reader (BioTek/Agilent).
Our primary assay using the HEK-293T RGS2-FBXO44 NanoBit cell line was extensively optimized to ensure maximum quality for screening. Coupling a fluorescent cell viability assay with our screen would allow us to rule out cytotoxic compounds while also hopefully reducing outliers from pipetting errors while plating cells. Thus, we multiplexed our NanoBit assay with cell viability using a cell-permeable fluorogenic protease substrate (glycyl-phenylalanyl-aminofluorocoumarin; GF-AFC; [Niles et al, 2007]), which can be combined with a luminescent readout without interfering with the luciferase signal. We previously utilized a similar multiplexing strategy in several screens ([Sjögren et al, 2012]; [Raveh et al, 2014]; [Sjögren et al, 2015]). We assessed and optimized treatment conditions (time, temperature, and reagent volume), cell density, buffer composition, and DMSO tolerance. In addition to the supplied proprietary LCS buffer (Promega), we also tested DMEM, 0.1% BSA, PBS, and HBSS (Supplemental Fig. 1A–C). […] The luminescent signal was stable up to 45 minutes after reagent addition, and we chose to run subsequent assays using 20 minutes of incubation time (Supplemental Fig. 1E). We also observed no effect on either viability or luminescence signal at DMSO concentrations <1% (Data not shown).
(§1) HEK-293T-RGS2-FBXO44 NanoBit cells were treated for 16–18 hours with compound at 100 μM. This relatively high concentration was chosen because of the challenging nature of our assay (intracellular PPI inhibition). Parental HEK-293T cells were used as a negative control. […] Based on these criteria, 97 compounds were identified as hits from our primary screen (6.1% initial hit rate). To confirm hits, the same assay was repeated in triplicate, which delivered 34 compounds that reached the threshold for inhibition in at least 2 replicates with <25% cell toxicity (Fig. 2C; Supplemental Table 1), thus rendering a final hit rate of 2.1%.

RGS2-FBXO44 interaction = molecular target: T1, RGS2-FBXO44 interaction; assay: RGS2-FBXO44 NanoBit assay (HEK-293T RGS2-SmBiT/LgBiT-FBXO44 stable clone #6); format: cell-based; conditions: for % Inhibition @ 100 μM of RGS2-FBXO44 NanoBit signal: 16–18 hours, fresh powder, luminescence normalized to viability, vs nontreated cells; for IC50: concentrations 500 to 0.01 μM, RLU normalized to viability (RFU), read-out: IC50 (μM), inhibition of RGS2-FBXO44 NanoBit signal
Description: Nano-Glo Live Cell Substrate (LCS) was diluted 1:50 in HBSS to form a 2× stock, and then, 15 μL was added to each well. Plates were shaken on an orbital shaker at 500 rpm for 5 minutes protected from light and then spun down at 1000 rpm for 30 seconds. Plates were incubated at room temperature for 20 minutes, and then, luminescence was detected on a Synergy Neo2 multimode plate reader.
as §1
Fresh powders of 20 compounds were purchased and reassayed for their ability to inhibit the RGS2-FBXO44 NanoBit signal, using the same assay paradigm as in the primary screen (Fig. 3; Table 1). […] Nevertheless, all compounds were confirmed to inhibit the RGS2-FBXO44 NanoBit signal at this high concentration.
We next assessed the concentration-dependent effect of our 20 hits. Compounds were assayed at concentrations ranging from 500 to 0.01 μM. NanoBit luminescence (relative luminescence units) was normalized to viability (RFU) and presented as a percentage of untreated cells.

RGS2 protein levels = assay: PathHunter ProLabel assay of RGS2 protein levels in HEK-293T-RGS2-PL cells; format: cell-based, Human; conditions: 100 μM compound overnight (16–18 hours)
Description: The PathHunter ProLabel assay was run as described previously ([Sjögren et al, 2012]; [Raveh et al, 2014]; [Sjögren et al, 2015]). Briefly, HEK-293T-RGS2-PL cells were plated at 10,000 cells per well in a white, tissue culture-treated 384-well plate (Perkin Elmer) in DMEM without phenol red (#21063; Gibco) and 0.1% BSA. The cells were allowed to attach for 4 hours, followed by treatment with DMSO, 10 μM MG-132, or 100 μM of compounds. Prior to the detection of RGS2 protein levels by the ProLabel assay, a fluorescent viability assay was performed in the same well, as described above. PathHunter ProLabel reagents (DiscoveRx) were prepared according to the manufacturer’s directions and added to the plate, followed by incubation at room temperature for 1 hour. Luminescence corresponding to RGS2-PL protein levels was detected using a Synergy Neo2 multimode plate reader.
Compounds that inhibit the interaction between RGS2 and FBXO44 would protect RGS2 from proteasomal degradation and result in increased RGS2 protein levels. We therefore next assayed our 20 hits for their ability to increase RGS2 protein levels. We first performed western blot analysis of HEK-293T cells transfected with RGS2-HA and FLAG-FBXO44 and treated overnight (16–18 hours) with 100 μM compound, using proteasome inhibitor MG-132 as a positive control (10 μM). […] Although somewhat disappointing, given the limited sensitivity of western blot, we opted to also test the compounds using an alternate assay paradigm. Specifically, we used the PathHunter ProLabel assay (DiscoveRx), an enzyme complementation assay in which a protein of interest is tagged with a 4 kDa part of β-galactosidase (ProLabel; PL). The chemiluminescent signal in the assay correlates with relative levels of the PL-tagged target protein. We previously developed a stable HEK-293T-RGS2-PL cell line that was used in several high-throughput screening campaigns ([Sjögren et al, 2012]; [Raveh et al, 2014]; [Sjögren et al, 2015]). The PathHunter ProLabel assay offers a more quantitative measurement of protein levels, with a larger dynamic range than a western blot. We treated HEK-293T-RGS2-PL cells overnight (16–18 hours) with 100 μM compound and used 10 μM MG-132 as a positive control.
As a further validation of the action of compound 10, we assessed whether the ability to increase RGS2 protein levels was dependent on FBXO44 using the PathHunter ProLabel assay. HEK-293T-RGS2-PL cells transfected with either nontargeting (NT) or FBXO44-targeting siRNA were treated overnight (16–18 hours) with vehicle or compound 10 (100 μM). […] Thus, compound 10 increases RGS2 protein levels through a mechanism that is dependent on FBXO44.

RGS2-SmBiT = molecular target: T2, RGS2-SmBiT; assay: split reporter (BiFC, NanoBiT); NanoBiT luminescence in live, transiently transfected HEK-293T cells; every combination of RGS2 and FBXO44 NanoBiT constructs; 15,000 cells/well, 2 hours incubation; conditions: partners not purified

Row | Molecule | Viability (% of Control) ([1]; fresh powder) | % Inhibition @ 100 μM of RGS2-FBXO44 NanoBit signal (RGS2-FBXO44 interaction) | IC50 (RGS2-FBXO44 interaction) [µM] | Cell toxicity (in words) [1] | Cell toxicity at 100 μM ([1]; fresh powder) [%] | RGS2 protein levels (PathHunter ProLabel) (RGS2 protein levels) | fold luminescence signal against the opposite tagging (RGS2-LgBiT with SmBiT-FBXO44) (RGS2-SmBiT) [fold]
1 | COC1(CNC(=O)CCc2ccccc2)C2CC3CC(C2)CC1C3 (stereo not drawn) [Compound 14] | 93.9 % of Control | 70.7∗∗∗∗ % | 67.4 | – | – | – | –
2 | Cc1cc(N2CCCC2)nc(N2CCN(C(=O)c3ccccc3C)CC2)n1 [Compound 3] | 54.1∗∗∗∗ % of Control | 40.6∗∗∗∗ % | 78.9 | – | – | – | –
3 | Cc1cc(C)c(C)c(Cn2c(CCNC(=O)CCC(C)O)nc3ccccc32)c1C (stereo not drawn) [Compound 15] | 68.5∗∗∗∗ % of Control | 50.2∗∗∗∗ % | 20.3 | – | – | – | –
4 | O=C(N(CCc1ccccc1)Cc1ccccn1)C12CC3CC(CC(C3)C1)C2 [Compound 13] | 7.5∗∗∗∗ % of Control | – | – | almost complete cell toxicity | < 90 | – | –
5 | Cc1nc(N2CCN(C(=O)c3cccc(N(C)C)c3)CC2)cc(C(F)(F)F)n1 [Compound 2] | 101.9 % of Control | 68.0∗∗∗∗ % | 72.2 | – | – | – | –
6 | CCOc1ccc(C(=O)Nc2ccc3c(c2)N(C(=O)C(C)C)CCC3)cc1OCC [Compound 5] | 120.5 % of Control | 44.5∗∗∗∗ % | 151 | – | – | – | –
7 | CSc1ccccc1C(=O)NCc1cc(C2CC2)n(C2CCCC2)n1 [Compound 17] | 69.2∗∗∗∗ % of Control | 69.0∗∗∗∗ % | 88.1 | – | – | – | –
8 | O=C(NCC1(O)CCOc2ccccc21)C1(c2ccc(Cl)cc2)CCCC1 (stereo not drawn) [Compound 12] | 116.6 % of Control | 32.6∗∗∗∗ % | 5.8 | – | – | – | –
9 | Cc1cccc(C(=O)N2CCN(c3nc(C)cc(N4CCCCC4)n3)CC2)c1 [Compound 1] | 45.8∗∗∗∗ % of Control | 48.9∗∗∗∗ % | 58 | significant toxicity | – | significantly increased RGS2 protein levels | –
10 | B1 | – | – | – | – | – | – | 3.5
